These results are taken from US20080220030A1, “Nanoparticles Comprising Chitosan and Cyclodextrin” (UNIVERSIDADE DE SANTIAGO DE COMPOSTELA, priority 2005, published 2008).

In brackets after ≈: the same amount, converted by molar mass.

By solubility is commonly meant how much of the substance goes into solution per volume. The low end stands for a poorly soluble substance, the high end for a readily soluble substance.

Holding throughout (format): physicochemical
A short description of data set [1]: Encapsulation efficiency and load of furosemide in nanoparticles (Example 8). From the text: (§1) The encapsulation efficiency (EE) refers to the percentage of drug which is trapped in the chitosan-cyclodextrin system with respect to the quantity of drug added in the process of preparation of the nanoparticles. The drug load is indirectly determined from a calculation of the non-encapsulated drug which remains dissolved in the nanoparticles' suspension medium. The difference between this value and the theoretical drug content is taken to be the quantity of drug loaded in the nanoparticles. The drug load percentage which appears in the table is the percentage with respect to the quantity of encapsulated drug in 100 mg of nanoparticle.
The drug that was not dissolved by the cyclodextrin-polymer mixture was discarded during the filtration process (through 0.45 .m) which was conducted prior to crosslinking the polymer (see example 3). […]. […]

The nature of data set [2]: Solubility of triclosan in the initial chitosan-cyclodextrin solutions (Example 7). The settings on record: aqueous with cosolvent or surfactant or cyclodextrin, thermodynamic from solid. The protocol: (§2) Nanoparticles of chitosan-cyclodextrin were obtained according to the method described in example 2, but adding a sufficient quantity of the drug triclosan to the initial solutions in order to oversaturate the solution. The drug that was not dissolved by the cyclodextrin-polymer mixture was discarded during the filtration process (through 0.45 .m) which was conducted prior to crosslinking the polymer by means of ionotropic crosslinking (see example 2). […] The triclosan was measured by means of a spectrophotometric method (.=280 nm).

Data set [3] is described as follows: Encapsulation efficiency and load of triclosan in nanoparticles (Example 7). As for the experimental part: as §2, §1
Data set [4] in a line: Dissolved triclosan in 80% water / 20% ethanol phase (Example 10). The protocol:
(§3) In a mixture of 80% water and 20% ethanol, solutions (3 ml) of chitosan (Protasan Cl110, 0.2%), HP.CD (0, 1.28 and 2.56 mM) and triclosan were prepared in a sufficient quantity to oversaturate the solution. These solutions were incubated for 24 h under magnetic stirring and, subsequently, filtered through a 0.45-.m filter and crosslinked by the addition of 1.2 ml of tripolyphosphate dissolved in a mixture of 80% water and 20% ethanol at a concentration of 1.25 mg/ml. The nanoparticles were isolated by centrifugation at 16000×g and resuspended in water. The size of the resulting particles and the polydispersion thereof were characterised by means of photon correlation spectroscopy (PCS). The quantity of encapsulated drug was determined by the degradation of an aliquot of the resuspended nanoparticles with the enzyme chitosanase (Chitosanase-RD, Pias Co, Japan), and the assessment was performed by means of spectrophotometry (.=280 nm).

A short description of data set [5]: Encapsulation efficiency and load of triclosan, chitosanase degradation (Example 10). The settings on record: 80% water/20% ethanol. As for the experimental part:
as §3

[6] abbreviates: type HPCD •, 25 mM (first 25 mM line).
[7] abbreviates: type HPCD •, 25 mM (second 25 mM line).

In the case of `NS(=O)(=O)c1cc(C(=O)O)c(NCc2ccco2)cc1Cl` [furosemide], the “furosemide EE” value in data set [1] (HPCD 0 mM) was determined as 22.3 ± 1.4%; in data set [1] (type HPCD •, 3.14 mM), 17.1 ± 3.0%; in data set [1] (type HPCD •, 6.29 mM), 12.1 ± 1.3%; in data set [1] (setting [6]), 7.2 ± 3.1%; in data set [1] (setting [7]), 8.8 ± 2.7%. Besides, the load of furosemide is given as 0.23 ± 0.07% in data set [1] (HPCD 0 mM); 0.89 ± 0.04% in data set [1] (type HPCD •, 3.14 mM); 1.43 ± 0.24% in data set [1] (type HPCD •, 6.29 mM); 2.39 ± 0.72% in data set [1] (setting [6]); 1.92 ± 0.55% in data set [1] (setting [7]).

Regarding `Oc1cc(Cl)ccc1Oc1ccc(Cl)cc1Cl` [triclosan], the solubility turned out to be 68 ± 17 µg/mL (≈ 235 µM) in data set [2] (HPCD 0 mM); 211 ± 24 µg/mL (≈ 729 µM) in data set [2] (type HPCD •, 3.14 mM); 588 ± 18 µg/mL (≈ 2030 µM) in data set [2] (type HPCD •, 6.29 mM); 1120 ± 13 µg/mL (≈ 3870 µM) in data set [2] (setting [6]); 870 ± 59 µg/mL (≈ 3000 µM) in data set [2] (setting [7]). In addition, the “triclosan EE” value was found to be 12.5 ± 8% in data set [3] (HPCD 0 mM); 5.2 ± 7% in data set [3] (type HPCD •, 3.14 mM); 4.8 ± 3% in data set [3] (type HPCD •, 6.29 mM); 5.5 ± 5% in data set [3] (setting [6]); 4.6 ± 4% in data set [3] (setting [7]); 22.3 ± 1.4% in data set [5] (HP•CD 0 mM). For the same compound, the “triclosan EE” value is 37.7 ± 7.3% in data set [5] (HP•CD 1.28 mM) and 33.5 ± 2.7% in data set [5] (HP•CD 2.56 mM). For the same compound, the triclosan load in data set [3] (HPCD 0 mM) is 0.8 ± 0.3%; in data set [3] (type HPCD •, 3.14 mM), 1.1 ± 0.2%; in data set [3] (type HPCD •, 6.29 mM) it was 2.2 ± 0.1%; in data set [3] (setting [6]), 3.1 ± 0.1%; in data set [3] (setting [7]), 2.0 ± 0.1%. Also, the dissolved triclosan in data set [4] (HP•CD 0 mM) amounted to 719 ± 79 mg/L; in data set [4] (HP•CD 1.28 mM) it was 2536 ± 283 mg/L; in data set [4] (HP•CD 2.56 mM), 3521 ± 213 mg/L. In addition, the load of triclosan is listed as 2.2 ± 0.9% in data set [5] (HP•CD 0 mM), 7.4 ± 1.3% in data set [5] (HP•CD 1.28 mM) and 8.7 ± 0.2% in data set [5] (HP•CD 2.56 mM).
